Assay results taken from ChEMBL document CHEMBL5537122, “Design, synthesis, and biological evaluation of 4-(2-fluorophenoxy)-7-methoxyquinazoline derivatives as dual EGFR/c-Met inhibitors for the treatment of NSCLC” (Eur J Med Chem, 2024).
Active and inactive are the calls of the source. No cut-off for these calls is given here.

Tests used:
A549 [1] = assay: Downregulation of phosphorylated Akt expression level human A549 cells overexpressing c-MET incubated for 24 hrs by Western blotting analysis; type: functional, cell-based; conditions: dose 0.2-10 µM
Homo sapiens = organism: Homo sapiens; assay: Inhibition of EGFR T790/C797S mutant (unknown origin) at 10 uM
L02 [2] = assay: Induction in apoptosis in human L02 cells assessed as necrotic cells at 1 uM incubated for 24 hrs by Annexin V-FITC/Propidium Iodide staining based flow cytometry analysis (reference value: 6.63 %); type: toxicity, cell-based; conditions: l02, 24 h
A549 [3] = assay: Induction of cell cycle arrest in human A549 cells overexpressing c-MET assessed as accumulation of cells at G2/M phase at 1 uM incubated for 24 hrs by RNase A/propidium iodide staining based flow cytometric analysis (reference value: 12.41 %); type: functional
A549 [4] = assay: Induction of cell cycle arrest in human A549 cells overexpressing c-MET assessed as accumulation of cells at S phase at 1 uM incubated for 24 hrs by RNase A/propidium iodide staining based flow cytometric analysis (reference value: 37.87 %); type: functional
[5] = Acute toxicity in KM mouse assessed as cell damage or necrosis in spleen at 100 mg/kg, IG qa administered for 7 days and measured on day 8 by hematoxylin and eosin staining based assay; type: organism-based; conditions: in vivo, po, 192 h, time 8 day
[6] = Nephrotoxicity in KM mouse assessed as effect on urea level at 100 mg/kg, IG qd administered for 7 days by automatic biochemical analyzer; type: toxicity, organism-based; conditions: in vivo, po, 168 h, time 7 day
[7] = molecular target: Epidermal growth factor receptor (Homo sapiens, UniProt P00533, L858R); assay: biochemical
NCI-H1975 [8] = assay: Induction in apoptosis in human NCI-H1975 cells assessed as necrotic cells at 1 uM incubated for 24 hrs by Annexin V-FITC/Propidium Iodide staining based flow cytometry analysis (reference value: 1.42 %); type: functional
[9] = molecular target: T1, Hepatocyte growth factor receptor (Homo sapiens, UniProt P08581); assay: Inhibition of c-MET (unknown origin) at 10 uM relative to control
[10] = Nephrotoxicity in KM mouse assessed as effect on creatinine level at 100 mg/kg, IG qd administered for 7 days by automatic biochemical analyzer; type: toxicity, organism-based; conditions: in vivo, po, 168 h, time 7 day
L02 [11] = assay: Induction in apoptosis in human L02 cells assessed as early apoptotic cells at 2.5 uM incubated for 24 hrs by Annexin V-FITC/Propidium Iodide staining based flow cytometry analysis (reference value: 0.26 %); type: toxicity, cell-based; conditions: l02, 24 h
A549 [12] = assay: Induction in apoptosis in human A549 cells overexpressing c-MET assessed as late apoptotic cells at 1 uM incubated for 24 hrs by Annexin V-FITC/Propidium Iodide staining based flow cytometry analysis (reference value: 7.59 %); type: functional
A549 [13] = assay: Induction of apoptosis in human A549 cells overexpressing c-MET assessed as increase in green fluorescence intensity incubated for 24 hrs by JC-1 staining based fluorescence inverted microscopic analysis; type: functional, cell-based; conditions: dose 1-2.5 µM
A549 [14] = assay: Antimigratory activity against EGF-induced cell migration in serum starved human A549 cells overexpressing c-MET assessed as increase in width of artificial gap incubated for 24 hrs by wound healing assay; type: functional, cell-based; conditions: dose 1-2.5 µM
A549 [15] = assay: Induction in apoptosis in human A549 cells overexpressing c-MET assessed as early apoptotic cells at 1 uM incubated for 24 hrs by Annexin V-FITC/Propidium Iodide staining based flow cytometry analysis (reference value: 7.27 %); type: functional
[16] = molecular target: Proto-oncogene tyrosine-protein kinase ROS (Homo sapiens) (UniProt P08922); assay: Inhibition of ROS (unknown origin) at 10 uM
[17] = molecular target: Tyrosine-protein kinase receptor UFO (Homo sapiens) (UniProt P30530); assay: Inhibition of AXL (unknown origin) at 10 uM
A549 [18] = assay: Induction in apoptosis in human A549 cells overexpressing c-MET assessed as viable cells at 1 uM incubated for 24 hrs by Annexin V-FITC/Propidium Iodide staining based flow cytometry analysis (reference value: 81.92 %); type: functional; conditions: read-out: Activity
[19] = system: Epidermal growth factor receptor (Homo sapiens), P00533 [L858R]; assay: Inhibition of EGFR L858R mutant (unknown origin) at 10 uM relative to control
NCI-H1975 [20] = assay: Induction in apoptosis in human NCI-H1975 cells assessed as late apoptotic cells at 1 uM incubated for 24 hrs by Annexin V-FITC/Propidium Iodide staining based flow cytometry analysis (reference value: 4.46 %); type: functional
[21] = molecular target: Epidermal growth factor receptor (Homo sapiens, UniProt P00533); assay: biochemical
Description: Inhibition of N-terminal GST tagged human recombinant EGFR (695 to end residues) expressed in baculovirus infected Sf9 cells using Poly (4:1 Glu, Tyr) as substrate incubated for 60 mins in presence of ATP by ADP-Glo luminescent assay

[22] = molecular target: Insulin-like growth factor 1 receptor (Homo sapiens) (UniProt P08069); assay: Inhibition of IGF-1R (unknown origin) at 10 uM
L02 [23] = assay: Induction in apoptosis in human L02 cells assessed as late apoptotic cells at 2.5 uM incubated for 24 hrs by Annexin V-FITC/Propidium Iodide staining based flow cytometry analysis (reference value: 0.36 %); type: toxicity, cell-based; conditions: l02, 24 h
[24] = Acute toxicity in KM mouse assessed as cell damage or necrosis in liver at 100 mg/kg, IG qa administered for 7 days and measured on day 8 by hematoxylin and eosin staining based assay; type: organism-based; conditions: in vivo, po, 192 h, time 8 day
[25] = molecular target: T1, Hepatocyte growth factor receptor; assay: biochemical
Description: Inhibition of N-terminal GST tagged human recombinant c-Met (956 to end residues) expressed in baculovirus infected Sf9 cells using Poly (4:1 Glu, Tyr) as substrate incubated for 60 mins in presence of ATP by ADP-Glo luminescent assay

A549 [26] = assay: Antitumor activity against human A549 cells overexpressing c-MET xenografted in BALB/c nude mouse assessed as tumor growth inhibition at 60 mg/kg, IG qod measured for 24 days relative to control; type: functional; conditions: A549, po, 576 h, time 24 day, read-out: TGI
A549 [27] = assay: Downregulation of phosphorylated c-Met protein expression human A549 cells overexpressing c-MET incubated for 24 hrs by Western blotting analysis; type: functional, cell-based; conditions: dose 1-10 µM
A549 [28] = assay: Inhibition of colony formation in human A549 cells overexpressing c-MET at 2 uM preincubated for 48 hrs followed by media replacement for every 2 days for 14 days by crystal violet staining based microscopic analysis relative to control; type: functional
[29] = Acute toxicity in KM mouse assessed as cell damage or necrosis in kidney at 100 mg/kg, IG qa administered for 7 days and measured on day 8 by hematoxylin and eosin staining based assay; type: organism-based; conditions: in vivo, po, 192 h, time 8 day
NCI-H1975 [30] = assay: Induction in apoptosis in human NCI-H1975 cells assessed as early apoptotic cells at 2.5 uM incubated for 24 hrs by Annexin V-FITC/Propidium Iodide staining based flow cytometry analysis (reference value: 2.54 %); type: functional
[31] = Hepatotoxicity in KM mouse assessed as effect on alanine aminotransferase level at 100 mg/kg, IG qd administered for 7 days by automatic biochemical analyzer; type: toxicity, organism-based; conditions: in vivo, po, 168 h, time 7 day
[32] = Hepatotoxicity in KM mouse assessed as effect on aspartate aminotransferase level at 100 mg/kg, IG qd administered for 7 days by automatic biochemical analyzer; type: toxicity, organism-based; conditions: in vivo, po, 168 h, time 7 day
[33] = molecular target: Insulin receptor (Homo sapiens) (UniProt P06213); assay: Inhibition of INSR (unknown origin) at 10 uM
[34] = Induction in apoptosis in human L02 cells assessed as viable cells at 1 uM incubated for 24 hrs by Annexin V-FITC/Propidium Iodide staining based flow cytometry analysis (reference value: 92.75 %); type: toxicity, cell-based; conditions: read-out: Activity

T1 sequence (P08581 whole entry): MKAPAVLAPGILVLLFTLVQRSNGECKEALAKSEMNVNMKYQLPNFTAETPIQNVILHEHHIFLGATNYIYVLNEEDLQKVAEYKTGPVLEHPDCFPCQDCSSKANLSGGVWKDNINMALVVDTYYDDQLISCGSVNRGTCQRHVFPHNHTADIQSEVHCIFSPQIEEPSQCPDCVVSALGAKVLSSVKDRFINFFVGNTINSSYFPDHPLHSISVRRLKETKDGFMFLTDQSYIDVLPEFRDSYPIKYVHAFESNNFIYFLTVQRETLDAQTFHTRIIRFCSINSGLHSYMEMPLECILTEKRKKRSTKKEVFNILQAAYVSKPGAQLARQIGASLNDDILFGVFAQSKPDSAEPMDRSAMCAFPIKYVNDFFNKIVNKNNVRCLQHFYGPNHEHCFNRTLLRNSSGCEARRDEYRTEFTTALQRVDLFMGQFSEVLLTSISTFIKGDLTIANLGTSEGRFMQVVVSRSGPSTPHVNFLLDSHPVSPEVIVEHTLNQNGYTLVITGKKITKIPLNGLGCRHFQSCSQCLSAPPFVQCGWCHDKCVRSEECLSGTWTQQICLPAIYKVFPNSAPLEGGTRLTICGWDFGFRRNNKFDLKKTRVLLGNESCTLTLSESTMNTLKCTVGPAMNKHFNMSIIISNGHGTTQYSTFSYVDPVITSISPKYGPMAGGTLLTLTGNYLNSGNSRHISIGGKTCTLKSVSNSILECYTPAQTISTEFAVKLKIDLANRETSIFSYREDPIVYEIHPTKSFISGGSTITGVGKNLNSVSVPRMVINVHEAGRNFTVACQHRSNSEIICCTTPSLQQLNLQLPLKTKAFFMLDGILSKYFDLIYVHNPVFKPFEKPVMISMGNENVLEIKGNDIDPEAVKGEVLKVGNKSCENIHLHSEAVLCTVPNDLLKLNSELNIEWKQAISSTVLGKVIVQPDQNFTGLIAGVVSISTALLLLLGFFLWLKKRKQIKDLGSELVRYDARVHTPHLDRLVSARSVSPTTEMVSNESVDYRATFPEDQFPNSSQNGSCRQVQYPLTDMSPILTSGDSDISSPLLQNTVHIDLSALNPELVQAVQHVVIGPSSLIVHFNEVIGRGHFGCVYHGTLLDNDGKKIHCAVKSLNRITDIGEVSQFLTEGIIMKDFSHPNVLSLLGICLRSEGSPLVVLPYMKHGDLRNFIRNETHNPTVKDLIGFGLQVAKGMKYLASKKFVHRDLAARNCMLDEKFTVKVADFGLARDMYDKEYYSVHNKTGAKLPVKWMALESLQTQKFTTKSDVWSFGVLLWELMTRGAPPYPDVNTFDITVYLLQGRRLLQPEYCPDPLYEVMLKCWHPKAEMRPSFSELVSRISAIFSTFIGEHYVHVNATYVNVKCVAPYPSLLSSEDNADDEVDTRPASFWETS
Chain of Epidermal growth factor receptor (Homo sapiens), P00533 [L858R] (P00533 whole entry L858R): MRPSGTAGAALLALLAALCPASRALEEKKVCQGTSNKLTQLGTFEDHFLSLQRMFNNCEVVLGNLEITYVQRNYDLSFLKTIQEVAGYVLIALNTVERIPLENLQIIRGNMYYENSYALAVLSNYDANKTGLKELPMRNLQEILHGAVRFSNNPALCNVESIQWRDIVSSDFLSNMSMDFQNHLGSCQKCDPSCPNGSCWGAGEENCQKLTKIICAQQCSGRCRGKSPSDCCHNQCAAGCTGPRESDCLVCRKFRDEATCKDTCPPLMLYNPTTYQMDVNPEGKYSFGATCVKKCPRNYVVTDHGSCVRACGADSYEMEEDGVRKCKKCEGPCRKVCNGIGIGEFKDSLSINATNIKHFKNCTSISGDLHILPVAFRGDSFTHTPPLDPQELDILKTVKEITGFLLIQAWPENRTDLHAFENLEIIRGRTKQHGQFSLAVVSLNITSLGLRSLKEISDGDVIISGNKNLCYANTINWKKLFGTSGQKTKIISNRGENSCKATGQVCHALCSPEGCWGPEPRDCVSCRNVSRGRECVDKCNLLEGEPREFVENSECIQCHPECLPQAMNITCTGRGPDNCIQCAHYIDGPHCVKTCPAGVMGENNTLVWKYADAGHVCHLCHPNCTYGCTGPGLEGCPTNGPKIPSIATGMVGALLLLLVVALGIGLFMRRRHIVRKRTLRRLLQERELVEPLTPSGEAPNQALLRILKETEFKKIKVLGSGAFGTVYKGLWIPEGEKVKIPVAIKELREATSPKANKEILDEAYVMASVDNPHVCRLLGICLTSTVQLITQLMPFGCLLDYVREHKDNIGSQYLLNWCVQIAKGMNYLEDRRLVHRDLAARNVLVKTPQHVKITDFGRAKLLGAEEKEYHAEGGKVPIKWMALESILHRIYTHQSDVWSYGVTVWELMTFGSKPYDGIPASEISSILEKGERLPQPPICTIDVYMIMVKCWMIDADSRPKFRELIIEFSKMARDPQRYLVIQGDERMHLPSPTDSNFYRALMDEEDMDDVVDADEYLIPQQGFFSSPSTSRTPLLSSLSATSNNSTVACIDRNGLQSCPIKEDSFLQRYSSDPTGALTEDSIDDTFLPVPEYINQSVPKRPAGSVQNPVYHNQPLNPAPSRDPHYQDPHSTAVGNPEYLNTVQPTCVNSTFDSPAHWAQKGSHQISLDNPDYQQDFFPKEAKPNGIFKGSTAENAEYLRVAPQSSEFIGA
Chain of Insulin receptor (Homo sapiens) (P06213 28-758 limits assumed): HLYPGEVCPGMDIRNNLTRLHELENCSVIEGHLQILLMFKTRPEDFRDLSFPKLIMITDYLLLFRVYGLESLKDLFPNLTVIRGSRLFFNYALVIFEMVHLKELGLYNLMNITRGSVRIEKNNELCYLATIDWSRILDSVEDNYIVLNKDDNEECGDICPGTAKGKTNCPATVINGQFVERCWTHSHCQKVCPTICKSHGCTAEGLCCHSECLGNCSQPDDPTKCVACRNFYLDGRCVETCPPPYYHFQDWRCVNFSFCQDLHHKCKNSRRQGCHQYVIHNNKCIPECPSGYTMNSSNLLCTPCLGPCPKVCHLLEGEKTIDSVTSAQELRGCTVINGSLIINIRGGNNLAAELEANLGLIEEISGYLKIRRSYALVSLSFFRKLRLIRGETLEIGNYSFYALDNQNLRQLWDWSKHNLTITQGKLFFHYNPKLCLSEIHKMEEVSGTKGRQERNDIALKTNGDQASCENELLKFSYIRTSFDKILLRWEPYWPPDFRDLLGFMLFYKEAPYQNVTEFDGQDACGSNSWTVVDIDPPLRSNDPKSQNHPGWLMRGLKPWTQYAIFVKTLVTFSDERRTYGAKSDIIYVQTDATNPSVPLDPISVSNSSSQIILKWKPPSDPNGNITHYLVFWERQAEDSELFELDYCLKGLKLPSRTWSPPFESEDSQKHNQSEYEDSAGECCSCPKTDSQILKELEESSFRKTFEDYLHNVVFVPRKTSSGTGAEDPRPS
Chain of Insulin receptor (Homo sapiens) (P06213 763-1382 limits assumed): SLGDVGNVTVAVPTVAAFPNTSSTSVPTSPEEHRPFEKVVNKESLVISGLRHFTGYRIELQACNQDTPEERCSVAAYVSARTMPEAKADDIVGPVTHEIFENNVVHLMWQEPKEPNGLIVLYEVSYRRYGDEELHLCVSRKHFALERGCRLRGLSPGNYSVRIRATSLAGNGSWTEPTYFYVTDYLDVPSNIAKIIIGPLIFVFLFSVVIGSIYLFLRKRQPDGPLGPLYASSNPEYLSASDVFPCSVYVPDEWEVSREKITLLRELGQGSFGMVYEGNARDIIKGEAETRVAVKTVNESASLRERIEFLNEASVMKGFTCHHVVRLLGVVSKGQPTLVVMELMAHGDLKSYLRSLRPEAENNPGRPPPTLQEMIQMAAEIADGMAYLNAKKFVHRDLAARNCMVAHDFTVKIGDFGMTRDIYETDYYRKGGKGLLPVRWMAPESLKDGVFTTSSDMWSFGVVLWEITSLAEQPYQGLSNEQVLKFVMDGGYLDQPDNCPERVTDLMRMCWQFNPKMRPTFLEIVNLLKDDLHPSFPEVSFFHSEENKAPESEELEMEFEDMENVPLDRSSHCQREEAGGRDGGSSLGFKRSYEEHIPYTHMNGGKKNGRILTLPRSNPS
Chain of Tyrosine-protein kinase receptor UFO (Homo sapiens) (P30530 whole entry): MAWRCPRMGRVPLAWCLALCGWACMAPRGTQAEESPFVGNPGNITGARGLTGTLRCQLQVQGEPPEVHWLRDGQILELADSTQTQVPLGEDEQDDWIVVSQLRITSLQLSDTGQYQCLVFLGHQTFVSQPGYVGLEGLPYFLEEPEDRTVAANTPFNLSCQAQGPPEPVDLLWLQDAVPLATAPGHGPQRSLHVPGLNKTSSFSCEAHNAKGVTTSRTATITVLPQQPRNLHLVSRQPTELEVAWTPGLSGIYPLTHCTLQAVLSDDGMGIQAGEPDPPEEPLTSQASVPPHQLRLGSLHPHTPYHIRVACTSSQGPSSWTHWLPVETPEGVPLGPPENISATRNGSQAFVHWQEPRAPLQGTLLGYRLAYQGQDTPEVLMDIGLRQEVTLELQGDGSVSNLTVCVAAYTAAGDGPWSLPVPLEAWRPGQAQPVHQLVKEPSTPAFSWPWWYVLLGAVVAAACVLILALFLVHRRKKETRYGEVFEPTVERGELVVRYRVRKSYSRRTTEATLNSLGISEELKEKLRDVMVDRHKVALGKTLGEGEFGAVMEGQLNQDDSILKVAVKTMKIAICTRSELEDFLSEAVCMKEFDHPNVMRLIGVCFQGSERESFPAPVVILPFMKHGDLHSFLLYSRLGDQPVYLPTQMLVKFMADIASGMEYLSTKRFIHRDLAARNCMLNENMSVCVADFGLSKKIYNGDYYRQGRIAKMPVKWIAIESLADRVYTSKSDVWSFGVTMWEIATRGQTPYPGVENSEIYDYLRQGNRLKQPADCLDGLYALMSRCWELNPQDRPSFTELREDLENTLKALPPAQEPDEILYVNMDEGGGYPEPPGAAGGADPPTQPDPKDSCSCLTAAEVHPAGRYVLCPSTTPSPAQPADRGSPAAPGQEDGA

Structure (SMILES): C=CC(=O)Nc1cc2c(Oc3ccc(NC(=O)n4c(=O)c(-c5ccccc5)c(C)n4C)cc3F)cccc2cc1OC
- Activity (A549 [1]): Dose-Dependent Effect
- inhibition (Homo sapiens): inactive
- Activity (L02 [2]): 7.58%
- Activity (A549 [3]): 11.29%
- Activity (A549 [4]): 35.49%
- Activity [5]: Non-Toxic
- Activity [6]: Non-Toxic
- IC50 [7]: 0.0681 µM
- Activity (NCI-H1975 [8]): 1.74%
- inhibition [9]: > 90%
- Activity [10]: Non-Toxic
- Activity (L02 [11]): 0.13%
- Activity (A549 [12]): 12.12%
- Activity (A549 [13]): Dose-Dependent Effect
- Activity (A549 [14]): Dose-Dependent Effect
- Activity (A549 [15]): 10.4%
- inhibition [16]: Active
- inhibition [17]: inactive
- viability at 1 µM (A549 [18]): 70.9%
- inhibition [19]: > 90%
- Activity (NCI-H1975 [20]): 7.27%
- IC50 [21]: 0.0998 µM
- inhibition [22]: inactive
- Activity (L02 [23]): 0.34%
- Activity [24]: Non-Toxic
- IC50 [25]: 0.00026 µM
- inhibition in vivo at 60 mg/kg (A549 [26]): 55.3%
- Activity (A549 [27]): Dose-Dependent Effect
- inhibition at 2 µM (A549 [28]): ~100%
- Activity [29]: Non-Toxic
- Activity (NCI-H1975 [30]): 3.87%
- Activity [31]: Non-Toxic
- Activity [32]: Non-Toxic
- inhibition [33]: inactive
- viability at 24 h, 1 µM [34]: 91.9%
